# Source: patent US10577357B2, “Inhibitors of LDLR-PCSK9 protein-protein interaction and methods of their use” (The Texas A&M University System, priority 2016, dated 2020)
# Target: T1, PCSK9 (Homo sapiens, UniProt Q8NBP7)
# T1 construct: host or cells: exogenous PCSK9 protein added to HepG2 cells
# Assay: LDL-uptake assay (BODIPY-LDL) in HepG2 cells with added PCSK9
# Type: cell-based
# Conditions: inhibitors 50 μM preincubated with 10 μg/mL PCSK9 for 30 min, BODIPY-LDL 10 μg/mL, quintuplicate
# Procedure: LDL-uptake assay was performed in quintuplicate following a published procedure with some modifications. HepG2 cells were seeded into 96-well plate at a density of 3×10^4 cells/well in DMEM with 10% FBS medium (Sigma-Aldrich). After a period of 24 h, the medium was aspirated and cells were washed with PBS twice. Cells were treated with 10% lipoprotein-deficient serum (Gemini) in DMEM and incubated for another 24 h. After washing cells with PBS twice, cells were incubated 2 h with either 100 μL of Pep2-8 (30 μM), inhibitors at various concentrations (50 μM), or negative control (DMSO), which were preincubated with 10 μg/mL PCSK9 in 10% lipoprotein-deficient DMEM at 0.5% DMSO level for 30 min prior. A positive control was also performed, in a similar fashion but in the absence of PCSK9. BODIPY-LDL (10 μg/mL, Invitrogen) was added to each well and cells were incubated for another 3 h. Cells were washed three times with PBS, and fluorescent intensity was measured on Synergy H4 plate reader (Biotek) with excitation and emission wavelength at 488 and 520 nm, respectively.
# T1 sequence (Q8NBP7 153-692): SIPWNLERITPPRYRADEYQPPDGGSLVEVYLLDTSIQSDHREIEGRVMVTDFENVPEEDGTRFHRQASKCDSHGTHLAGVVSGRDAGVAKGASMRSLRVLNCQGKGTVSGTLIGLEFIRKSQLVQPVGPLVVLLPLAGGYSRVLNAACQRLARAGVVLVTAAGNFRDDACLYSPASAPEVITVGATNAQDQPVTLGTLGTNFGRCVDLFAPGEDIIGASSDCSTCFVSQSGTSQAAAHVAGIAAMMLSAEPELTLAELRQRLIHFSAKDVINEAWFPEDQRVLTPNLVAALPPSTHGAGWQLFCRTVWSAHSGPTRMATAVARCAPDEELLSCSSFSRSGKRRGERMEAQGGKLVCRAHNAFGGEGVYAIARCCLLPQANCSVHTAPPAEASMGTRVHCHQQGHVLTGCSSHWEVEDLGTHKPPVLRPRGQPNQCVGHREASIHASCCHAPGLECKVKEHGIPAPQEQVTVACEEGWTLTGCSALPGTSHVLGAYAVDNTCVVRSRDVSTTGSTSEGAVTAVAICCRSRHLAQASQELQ
# T1 sequence (Q8NBP7 31-152 partner limits assumed): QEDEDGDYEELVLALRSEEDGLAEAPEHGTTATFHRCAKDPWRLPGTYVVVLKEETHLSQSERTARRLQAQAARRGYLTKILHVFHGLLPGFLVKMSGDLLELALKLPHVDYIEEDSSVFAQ
row,Compound,activity at 50 µM [%]
1,CC(C)C[C@H](C(=O)N1CCN([C@@H](CC(N)=O)C(=O)N[C@@H](CCCNC(=N)N)C(=O)NC2CCOC2=O)CC1)N1C(=O)N[C@@H](CC(=O)O)C1=O (stereo partly shown) [KB2234],8.7 ± 5.9
2,N=C(N)NCCC[C@@H](NC(=O)[C@H](CC(=O)O)N1CCN(C(=O)[C@H](CC(N)=O)N2C(=O)N[C@@H](CCC(N)=O)C2=O)CC1)C(=O)NCCC(=O)O [KB2275],8.6 ± 1.5
3,CC(C)C[C@@H](C(=O)N[C@H](CCCNC(=N)N)C(=O)NCCC(=O)O)N1CCN(C(=O)[C@H](CS)N2C(=O)N[C@H](CC(N)=O)C2=O)CC1 [KB2276],19 ± 4.7
4,CC(C)C[C@H](C(=O)N1CCN([C@@H](CC(N)=O)C(=O)N[C@@H](CCCNC(=N)N)C(=O)NCCC(=O)O)CC1)N1C(=O)N[C@@H](CC(=O)O)C1=O [KB2274],13.5 ± 4.3
